In patent US11208412B2 (DAEGU-GYEONGBUK MEDICAL INNOVATION FOUNDATION, priority 2017, dated 2021) one finds remaining binding data, which are given here for three compounds.

Experiment in all cases: Kinase selectivity, DiscoverX scanMAX Kinase assay panel (% control)
Type in all cases: binding

Test [1] has as its target T1, kinases of the scanMAX Kinase assay panel (Homo sapiens, UniProt Q9UIK4).
T1 construct: purchased DiscoverX Co. (contract measurement) scanMAX Kinase assay panel
As to conditions: DAPK2; 1 uM. The method in brief: (§1)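 Binding-panel profiling at one concentration, 1 uM in DMSO; values are % of DMSO control after subtracting the positive-control floor. Less than 35% means activity on that kinase.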

Test [2] concerns the target T2, kinases of the scanMAX Kinase assay panel (Homo sapiens, UniProt Q9H422).
T2 construct: purchased DiscoverX Co. (contract measurement) scanMAX Kinase assay panel
Conditions: HIPK3; 1 uM. The method in brief: as §1

Test [3] has as its target T3, kinases of the scanMAX Kinase assay panel (Homo sapiens, UniProt O14920).
T3 construct: purchased DiscoverX Co. (contract measurement) scanMAX Kinase assay panel
T3 sequence (O14920 1-756): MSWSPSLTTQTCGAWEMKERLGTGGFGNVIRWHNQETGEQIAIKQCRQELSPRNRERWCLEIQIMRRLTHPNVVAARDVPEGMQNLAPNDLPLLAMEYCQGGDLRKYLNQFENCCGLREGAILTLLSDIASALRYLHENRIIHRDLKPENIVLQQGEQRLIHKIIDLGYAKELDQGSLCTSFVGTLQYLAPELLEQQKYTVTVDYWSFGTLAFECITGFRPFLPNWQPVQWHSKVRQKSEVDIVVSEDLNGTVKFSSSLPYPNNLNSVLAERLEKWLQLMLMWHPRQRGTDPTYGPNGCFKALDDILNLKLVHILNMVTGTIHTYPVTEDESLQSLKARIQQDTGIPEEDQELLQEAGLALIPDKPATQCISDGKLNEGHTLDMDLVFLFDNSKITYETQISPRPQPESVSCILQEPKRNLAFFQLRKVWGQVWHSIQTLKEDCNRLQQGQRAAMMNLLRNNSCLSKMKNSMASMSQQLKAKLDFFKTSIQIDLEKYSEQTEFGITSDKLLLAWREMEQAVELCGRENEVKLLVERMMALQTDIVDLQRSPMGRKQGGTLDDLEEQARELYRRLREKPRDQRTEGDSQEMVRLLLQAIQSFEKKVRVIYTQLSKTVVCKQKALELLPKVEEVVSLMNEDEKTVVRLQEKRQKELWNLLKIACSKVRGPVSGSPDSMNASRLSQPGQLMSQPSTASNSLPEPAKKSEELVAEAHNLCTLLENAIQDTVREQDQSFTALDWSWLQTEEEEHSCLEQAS
As to conditions: IKK-beta; 1 uM. The procedure, abridged:
as §1

The target in test [4] is T4, kinases of the scanMAX Kinase assay panel (Homo sapiens, UniProt P07948).
T4 construct: purchased DiscoverX Co. (contract measurement) scanMAX Kinase assay panel
As to conditions: LYN; 1 uM. The method in brief: as §1

The target of test [5] is T5, kinases of the scanMAX Kinase assay panel (Homo sapiens, UniProt Q9UQM7).
T5 construct: purchased DiscoverX Co. (contract measurement) scanMAX Kinase assay panel
As to conditions: CAMK2A; 1 uM. The method in brief:
as §1

Test [6] has as its target T6, kinases of the scanMAX Kinase assay panel (Homo sapiens, UniProt Q15835).
T6 construct: purchased DiscoverX Co. (contract measurement) scanMAX Kinase assay panel
T6 sequence (Q15835 1-563): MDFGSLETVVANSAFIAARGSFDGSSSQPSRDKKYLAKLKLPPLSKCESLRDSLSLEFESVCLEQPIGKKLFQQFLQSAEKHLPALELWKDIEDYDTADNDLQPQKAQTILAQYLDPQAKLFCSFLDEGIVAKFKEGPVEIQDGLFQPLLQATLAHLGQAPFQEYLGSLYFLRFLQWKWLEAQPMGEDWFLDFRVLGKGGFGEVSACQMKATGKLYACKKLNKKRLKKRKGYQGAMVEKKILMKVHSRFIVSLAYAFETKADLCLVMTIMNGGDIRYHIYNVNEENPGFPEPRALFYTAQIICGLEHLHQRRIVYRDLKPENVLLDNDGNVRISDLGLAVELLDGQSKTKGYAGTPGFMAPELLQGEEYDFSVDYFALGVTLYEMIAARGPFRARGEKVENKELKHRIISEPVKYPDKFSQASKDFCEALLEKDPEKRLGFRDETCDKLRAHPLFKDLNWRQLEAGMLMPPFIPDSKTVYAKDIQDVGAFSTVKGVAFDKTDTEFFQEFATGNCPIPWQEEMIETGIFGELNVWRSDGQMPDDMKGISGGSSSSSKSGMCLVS
Conditions: GRK1; 1 uM. The procedure, abridged: as §1

Test [7] addresses T7, kinases of the scanMAX Kinase assay panel (Homo sapiens, UniProt Q99755).
T7 construct: purchased DiscoverX Co. (contract measurement) scanMAX Kinase assay panel
Conditions: PIP5K1A; 1 uM. The procedure, abridged:
as §1

The structures appear in SMILES notation.

T2 sequence (Q9H422 whole entry): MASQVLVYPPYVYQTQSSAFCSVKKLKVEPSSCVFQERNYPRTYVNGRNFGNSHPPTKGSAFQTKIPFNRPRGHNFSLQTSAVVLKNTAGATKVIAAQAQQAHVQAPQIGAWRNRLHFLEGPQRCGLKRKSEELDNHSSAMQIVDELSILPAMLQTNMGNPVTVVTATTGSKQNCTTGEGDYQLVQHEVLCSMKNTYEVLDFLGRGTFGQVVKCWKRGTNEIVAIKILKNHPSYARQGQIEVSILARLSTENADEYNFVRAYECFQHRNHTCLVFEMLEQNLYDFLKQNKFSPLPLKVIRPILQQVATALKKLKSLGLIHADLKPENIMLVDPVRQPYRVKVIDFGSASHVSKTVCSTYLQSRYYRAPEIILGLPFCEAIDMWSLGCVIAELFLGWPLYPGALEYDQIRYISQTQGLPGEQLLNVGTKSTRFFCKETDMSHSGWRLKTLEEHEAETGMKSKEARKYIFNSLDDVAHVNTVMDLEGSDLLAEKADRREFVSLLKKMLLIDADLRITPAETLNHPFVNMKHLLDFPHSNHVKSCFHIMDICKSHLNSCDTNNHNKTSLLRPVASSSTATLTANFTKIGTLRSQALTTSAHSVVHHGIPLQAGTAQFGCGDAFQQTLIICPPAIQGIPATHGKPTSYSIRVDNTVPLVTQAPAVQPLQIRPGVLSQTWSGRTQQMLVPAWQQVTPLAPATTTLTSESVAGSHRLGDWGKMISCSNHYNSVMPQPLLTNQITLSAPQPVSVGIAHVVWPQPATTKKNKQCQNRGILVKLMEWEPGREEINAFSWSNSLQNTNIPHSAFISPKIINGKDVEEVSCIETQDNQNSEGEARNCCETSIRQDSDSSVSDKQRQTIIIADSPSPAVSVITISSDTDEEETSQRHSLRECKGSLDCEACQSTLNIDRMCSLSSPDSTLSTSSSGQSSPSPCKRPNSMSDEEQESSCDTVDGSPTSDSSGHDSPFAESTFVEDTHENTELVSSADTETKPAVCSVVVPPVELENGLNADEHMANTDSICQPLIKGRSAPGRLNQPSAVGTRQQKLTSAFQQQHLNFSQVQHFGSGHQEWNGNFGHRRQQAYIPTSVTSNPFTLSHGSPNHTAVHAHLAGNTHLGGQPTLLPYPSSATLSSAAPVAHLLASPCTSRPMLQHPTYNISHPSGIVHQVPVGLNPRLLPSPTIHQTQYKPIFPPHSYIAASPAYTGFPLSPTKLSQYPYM
T5 sequence (Q9UQM7 whole entry): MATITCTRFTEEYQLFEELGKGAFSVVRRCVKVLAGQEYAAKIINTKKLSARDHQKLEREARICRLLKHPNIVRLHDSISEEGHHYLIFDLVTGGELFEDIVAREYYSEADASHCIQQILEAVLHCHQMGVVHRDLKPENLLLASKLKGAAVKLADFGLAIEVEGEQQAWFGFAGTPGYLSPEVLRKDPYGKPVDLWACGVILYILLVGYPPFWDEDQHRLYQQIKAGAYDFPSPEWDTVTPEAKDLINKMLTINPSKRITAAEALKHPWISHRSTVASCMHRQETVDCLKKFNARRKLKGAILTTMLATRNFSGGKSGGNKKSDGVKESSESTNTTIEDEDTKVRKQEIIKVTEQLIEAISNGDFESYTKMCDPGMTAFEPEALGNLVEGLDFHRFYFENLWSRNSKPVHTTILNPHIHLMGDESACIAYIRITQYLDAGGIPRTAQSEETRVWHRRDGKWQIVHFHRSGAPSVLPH
T7 sequence (Q99755 whole entry): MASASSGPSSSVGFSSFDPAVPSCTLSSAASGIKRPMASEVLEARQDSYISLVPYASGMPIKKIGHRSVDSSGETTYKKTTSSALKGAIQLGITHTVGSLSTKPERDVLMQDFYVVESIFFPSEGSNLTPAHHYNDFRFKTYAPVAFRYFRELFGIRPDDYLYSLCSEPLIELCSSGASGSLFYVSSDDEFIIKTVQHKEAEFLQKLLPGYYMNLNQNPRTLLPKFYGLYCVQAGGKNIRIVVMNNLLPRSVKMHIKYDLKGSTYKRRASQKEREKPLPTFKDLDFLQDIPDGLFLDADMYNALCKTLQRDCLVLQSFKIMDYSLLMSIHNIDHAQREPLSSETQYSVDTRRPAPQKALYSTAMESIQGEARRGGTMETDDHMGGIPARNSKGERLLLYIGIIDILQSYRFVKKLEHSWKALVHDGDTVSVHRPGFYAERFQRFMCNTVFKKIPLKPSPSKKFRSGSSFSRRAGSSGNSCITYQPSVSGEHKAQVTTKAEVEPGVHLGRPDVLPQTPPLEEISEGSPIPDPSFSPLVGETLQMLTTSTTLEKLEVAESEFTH
T1 sequence (Q9UIK4 whole entry): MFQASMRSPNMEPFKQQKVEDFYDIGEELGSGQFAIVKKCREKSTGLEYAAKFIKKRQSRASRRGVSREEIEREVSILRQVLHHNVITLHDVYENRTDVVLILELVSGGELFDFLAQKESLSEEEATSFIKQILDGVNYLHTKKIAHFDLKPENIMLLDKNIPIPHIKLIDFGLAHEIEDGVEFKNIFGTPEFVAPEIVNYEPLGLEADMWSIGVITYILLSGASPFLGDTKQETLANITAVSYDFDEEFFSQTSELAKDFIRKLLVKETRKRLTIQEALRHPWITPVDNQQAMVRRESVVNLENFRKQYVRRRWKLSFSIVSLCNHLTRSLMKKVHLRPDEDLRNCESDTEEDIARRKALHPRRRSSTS
T4 sequence (P07948 whole entry): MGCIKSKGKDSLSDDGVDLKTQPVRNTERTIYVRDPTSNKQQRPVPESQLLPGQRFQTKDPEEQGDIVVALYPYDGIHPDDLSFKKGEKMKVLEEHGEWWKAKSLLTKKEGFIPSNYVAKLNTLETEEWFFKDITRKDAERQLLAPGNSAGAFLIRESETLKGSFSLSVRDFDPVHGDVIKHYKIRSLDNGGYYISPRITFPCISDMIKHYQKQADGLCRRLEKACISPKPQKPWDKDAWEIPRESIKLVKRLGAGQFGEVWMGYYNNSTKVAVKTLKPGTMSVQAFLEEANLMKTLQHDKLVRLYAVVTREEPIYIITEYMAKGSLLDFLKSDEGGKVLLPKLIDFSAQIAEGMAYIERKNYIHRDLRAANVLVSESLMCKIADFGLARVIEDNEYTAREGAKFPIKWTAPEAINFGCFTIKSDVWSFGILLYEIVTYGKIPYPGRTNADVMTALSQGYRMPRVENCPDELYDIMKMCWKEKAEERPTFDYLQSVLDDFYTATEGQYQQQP

In the case of `CNc1nc(Nc2ccc(C(=O)N3CCOCC3)cc2OC)nc2[nH]cc(C#N)c12` [Example 1, 2-((2-methoxy-4-(morpholine-4-carbonyl)phenyl)amino)-4-(methylamino)-7H-pyrrolo[2,3-d]pyrimidine-5-carbonitrile], the remaining binding at 1 µM in test [1] turned out to be 11%; in test [2], 64%; in test [3], 75%; in test [4] it was 90%; in test [5], 60%; in test [6] it was 72%. The remaining binding at 1 µM in test [7] is 99%.
Take `CC1(Nc2nc(Nc3cnn([C@H]4CCN(C5COC5)C[C@@H]4F)c3Cl)nc3[nH]cc(C#N)c23)CC1` [Example 52, 2-((5-chloro-1-((3S,4S)-3-fluoro-1-(oxetane-3-yl)piperidine-4-yl)-1H-pyrazole-4-yl)amino)((1-methylcyclopropyl)amino)-7H-pyrrolo[2,3-d]pyrimidine-5-carbonitrile]: the remaining binding at 1 µM in test [1] is 12%; in test [2], 6.2%; in test [3], 9.7%; in test [4], 36%; in test [5] it was 28%; in test [6] it was 36%. Also, in test [7], the remaining binding at 1 µM came out at 2.5%.
As to `CCNc1nc(Nc2ccc(C(=O)N3CCC(N4CCOCC4)CC3)cc2OC)nc2[nH]cc(C(F)(F)F)c12` [Example 104, (4-((4-(ethylamino)-5-(trifluoromethyl)-7H-pyrrolo[2,3-d]pyrimidine-2-yl)amino)-3-methoxyphenyl)(4-morpholinopiperidine-1-yl)methanone], the remaining binding at 1 µM in test [1] was found to be 35%; in test [2] it was 16%; in test [3], 92%; in test [4] it was 100%; in test [5] it was 39%; in test [6], 67%. This compound had a remaining binding at 1 µM in test [7] of 100%.
